# “Also recorded” adds a separate entry of the source.
# How the values were obtained:
# NCI-H1048 tumors = assay: Tumor growth inhibition in nude Balb/c mice bearing NCI-H1048 tumors; format: in vivo; conditions: 30 mg/kg, once per week i.p.; average tumor volumes from 6 mice; FIG. 1 (D)
# Method: FIG. 1. Provided compounds can provide various activities including inhibiting tumor growth in vivo. (A): Provided compounds can inhibit tumor growth in vivo. Nude Balb/c mice were inoculated with NCI-H1048 cells in Matrigel. Tumors were allowed to grow up to about 200 mm^3 and mice were then randomized into two groups. Mice were dosed intraperitoneally (i.p.) once per week with vehicle or 30 mg/kg compound 22. Tumor size was measured every three to four days and mice were sacrificed once vehicle tumors reached 2000 mm^3. Error bar is SEM. Dosing started at day 17 post tumor inoculation. (B): Provided technologies can reduce KAT2A and KAT2B levels and histone acetylation levels. […] Vehicle is DMSO. […] Cell count data relative to DMSO control after 8 days of treatment with compound 22 are presented as examples to confirm inhibition. GI50=6 nM. (D): Provided technologies can inhibit tumor growth in vivo. Nude balb/c mice inoculated with H1048 tumors were dosed intraperitoneally once per week (qw i.p.) with vehicle (HbCD) or compound 22. Average tumor volumes+/−SEM from 6 mice are represented. […] See also (A). […] Certain body weights relative to starting weight are presented as examples to confirm tolerability and safety. (F): Provided technologies can reduce KAT2A and KAT2B levels and histone acetylation levels in tumor in vivo. […]
# CD86 = CD86 by flow cytometry (monocytic differentiation), MOLM-13 cells, 48 hours; format: cell-based; conditions: FIG. 2 (C)
# Method: (§1) FIG. 2. Provided compounds can provide various activities. (A): Provided technologies can reduce KAT2A and KAT2B levels and histone acetylation levels. […] Cell count data after 8 days of treatment with compound 22 relative to DMSO control are presented as examples to confirm inhibition. […] (C): Provided technologies can modulate cell states and induce differentiation. […] EC50=0.3 nM.
# [1] = system: NCI-H1048 human lung cancer xenograft; assay: NCI-H1048 human lung cancer xenograft model, tumor growth inhibition (BALB/c nude mice); format: in vivo, mouse (BALB/c nude); human tumor cells; conditions: FIG. 1
# Excerpt: Among other things, provided technologies are useful for treating various diseases, disorders, or conditions. For example, in some embodiments, provided technologies are useful for treating cancer as confirmed in the present Example. In some embodiments, the present disclosure provides technologies for assessing various technologies, e.g., compounds, compositions, or methods. Among other things, the present Example provides technologies, e.g., xenograft model, for assessing various technologies. In some embodiments, provided technologies are assessed in tumor xenograft model. In some embodiments, provided technologies are assessed in NCI-H1048 human lung cancer xenograft model. […]
# As described herein, various provided technologies are assessed in cancer xenograft models. […] A number of doses were assessed including 30 mg/kg. Assessed compounds were administered orally or via the intraperitoneal route. […]
# Cell culture: NCI-H1048 tumor cells are maintained in vitro as monolayer culture in HITES Medium supplemented with 5% fetal bovine serum at 37° C. in an atmosphere of 5% CO2 in air. […] The cells growing in an exponential growth phase are harvested and counted for tumor inoculation. […]
# Measurement Parameters: For routine monitoring, animals are monitored for tumor growth, behavior (e.g., mobility, food and water consumption), body weight (BW), eye/hair matting and other effects. […]
# LASCPC-01 cells = assay: Inhibition of growth in vivo, neuroendocrine prostate cancer (LASCPC-01) cells; conditions: FIG. 3 (see also Example B3)
# KAT2B = KAT2B (Homo sapiens, UniProt Q92831); assay: Western blot of KAT2B level in acute myeloid leukemia MOLM-13 cells, 48 h; format: cell-based; parameters: degrader, Western blot; conditions: FIG. 2 (A)
# KAT2B, sequence (Q92831 whole entry): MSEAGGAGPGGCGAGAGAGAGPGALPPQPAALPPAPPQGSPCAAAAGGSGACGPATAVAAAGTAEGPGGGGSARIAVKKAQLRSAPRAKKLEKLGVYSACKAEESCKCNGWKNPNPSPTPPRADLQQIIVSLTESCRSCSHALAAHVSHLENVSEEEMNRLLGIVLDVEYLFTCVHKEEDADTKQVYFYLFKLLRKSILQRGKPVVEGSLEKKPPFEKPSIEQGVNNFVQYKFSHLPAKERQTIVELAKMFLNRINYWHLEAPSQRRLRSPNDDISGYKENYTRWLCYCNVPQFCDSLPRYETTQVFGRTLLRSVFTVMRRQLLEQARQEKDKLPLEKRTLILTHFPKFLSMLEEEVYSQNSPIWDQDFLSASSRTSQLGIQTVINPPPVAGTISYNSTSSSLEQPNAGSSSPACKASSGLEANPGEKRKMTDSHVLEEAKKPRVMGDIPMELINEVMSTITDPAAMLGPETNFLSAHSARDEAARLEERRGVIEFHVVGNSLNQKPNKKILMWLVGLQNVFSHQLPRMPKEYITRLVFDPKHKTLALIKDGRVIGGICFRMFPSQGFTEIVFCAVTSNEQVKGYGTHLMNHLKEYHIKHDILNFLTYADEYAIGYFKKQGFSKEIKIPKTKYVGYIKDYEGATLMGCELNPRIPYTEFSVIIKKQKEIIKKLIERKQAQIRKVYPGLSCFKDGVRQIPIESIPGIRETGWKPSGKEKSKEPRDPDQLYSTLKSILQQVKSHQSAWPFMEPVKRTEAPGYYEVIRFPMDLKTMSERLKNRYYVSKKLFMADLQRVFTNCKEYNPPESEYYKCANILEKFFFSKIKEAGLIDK
# Method: as §1
smiles,measurement,setting,value
"CN1C[C@H](Nc2cnn(C)c(=O)c2Br)C[C@H](c2ccc(C(=O)N3CCC(CN4CCN(c5ccc6c(c5)CN(C5CCC(=O)NC5=O)C6=O)CC4)CC3)cc2)C1 (stereo partly drawn) [Compound 22, 3-(5-(4-((1-(4-((3R,5R)-5-((5-bromo-1-methyl-6-oxo-1,6-dihydropyridazin-4-yl)amino)-1-methylpiperidin-3-yl)benzoyl)piperidin-4-yl)methyl)piperazin-1-yl)-1-oxoisoindolin-2-yl)piperidine-2,6-dione]",tumor growth inhibition,NCI-H1048 tumors,70%
same,monocytic differentiation,CD86; CD86 flow cytometry at 48 hours,monocytic differentiation was observed
same,EC50,"CD86; Homo sapiens, flow cytometry at 48 hours",0.3 nM
same,tumor growth inhibition in vivo,[1],tumor growth inhibition in vivo; also recorded: inhibit cell growth in vitro and in vivo
same,cell growth in vivo,LASCPC-01 cells,inhibit cell growth in vitro and in vivo
same,reduction of KAT2B level,KAT2B,confirm such reduction

# From patent publication US20260306640A1, “TECHNOLOGIES TARGETING CELL STATES” (Auron Therapeutics, Inc., priority 2023, published 2026)
